Assay results as given in patent US9797002B2, “Methods and kits for genome-wide methylation of GpC sites and genome-wide determination of chromatin structure” (UNIVERSITY OF SOUTHERN CALIFORNIA, priority 2010, dated 2017).

System: LD419
Experiment: RT-PCR analysis of L1-MET reactivation after 5-Aza-CdR treatment
Format: cell-based, human
Settings: LD419 fibroblast cell line, 1 or 3 μM 5-Aza-CdR for 24 hours (day 3 after treatment), β-actin control
From the text: (A) The functional domains of MET include the signal peptide (SP), sema domain at the N-terminus, the PSI domain, IPT repeats, the transmembrane domain (TM), and the kinase domain at the C-terminus. The structure of truncated MET proteins 1 and 2 are shown, encoded by transcripts derived from placenta (GenBank accession no. BX334980) and a bladder carcinoma cell line (BF208095), respectively. (B) The two […] transcripts, truncated L1-MET-1 (T-MET-1) and truncated L1-MET-2 (T-MET-2), were cloned into a pMEV expression vector with 2 HA tags fused at the N-terminal. Hela cells were transfected with either the empty pMEV vector, pMEV T-MET-1, or pMEV T-MET-2 and protein was extracted after 48 hours. The expression of truncated MET-1 (90 kDa) and truncated MET-2 (60 kDa) was detected by western blot using an HA antibody. (C) Results of 5′RACE reveal the start site for L1-MET within the L1 element. The transcriptional start site of L1-MET was confirmed by 5′RACE in the T24 cell line which expressed L1-MET. The underlined sequence is located inside of the LINE-1. […] Found at: doi:10.1371/journal.pgen. 1000917.s002 (1.22 MB TIF)
The transcript from the L1-MET anti-sense promoter contains its own exons 1 and 2, referred to as L1-MET exon 1 and L1-MET exon 2 (FIG. 7A). […]
Quantitative RT-PCR. Expression was determined by quantitative RT-PCR as described previously.

Nc1ncn([C@H]2C[C@H](O)[C@@H](CO)O2)c(=O)n1 [5-aza-deoxycytidine]
expression (reactivation) of the L1-MET transcript: lead to expression of L1-MET
expression (reactivation) of the L1-MET transcript (listed as 5-Aza-CdR): reactivation of L1-MET
